We go through six molecules from US6579967B1, “Receptor-selective somatostatin analogs” (The Salk Institute for Biological Studies, priority 1999, dated 2003).

Holding throughout (type): binding
The target in one assay is T1, human SSTR1 (Homo sapiens, UniProt P30872).
T1 construct: expressed in transfected cells; host or cells: CHO-K1 cells and CCL39 cells
Kind of assay: Displacement of 125I-[Leu8,D-Trp22,Tyr25]-somatostatin-28 from cloned SSTR1 (receptor autoradiography on membrane pellets). On the procedure:
(§1) Generally, recombinant cells expressing the receptor are washed and homogenized to prepare a crude protein homogenate in a suitable buffer, as known in the art. In a typical assay, an amount of protein from the cell homogenate is placed into a small volume of an appropriate assay buffer at an appropriate pH. Candidate substances, such as potential SRIF agonists and antagonists, are added to the admixture in convenient concentrations, and the interaction between the candidate substance and the receptor polypeptide is monitored.
(§2) Receptor binding assays are performed on cloned SRIF receptors as generally set forth in Raynor et al. supra. Using such assays, one can generate KD values which are indicative of the concentration of a ligand necessary to occupy one-half (50%) of the binding sites on a selected amount of a receptor or the like, or alternatively, competitive assays can generate IC50 values which are indicative of the concentration of a competitive ligand necessary to displace a saturation concentration of a target ligand being measured from 50% of binding sites.
(§3) In vitro Bioassay: The various somatostatin analogs are tested in vitro for their ability to bind to isolated cloned receptors expressed on CHO-K1 cells and CCL39 cells. CHO-K1 cells are grown in Ham's F-12 medium, and CCL39 cells are grown in Dulbecco's modified Eagle's medium/Ham's F-12(1:1) mix, supplemented with 10% fetal bovine serum, 100 U/ml penicillin and 100 μg/ml streptomycin, in humidified air containing 5% CO2 at 37° C.
(§4) Cells are washed twice with and scraped into ice-cold 0.05 M Tris-HCl (pH 7.4), collected by centrifugation, and homogenized using a rotor/stator slash system in the same buffer. After centrifugation at 120 g for 5 min. at 4° C., the supernatant is collected and centrifuged again at 48,000 g for 30 min. at 4° C. The resulting pellet is resuspended in ice-cold Tris buffer, transferred into a microfuge tube, and centrifuged at 20,000 g for 15 min. at 4° C. After withdrawal of the supernatant, the membrane pellet is stored at −80° C.
(§5) Receptor autoradiography is performed on 20 μm thick cryostat sections of the membrane pellets, mounted on microscope slides, and then stored at −20° C. […] […] Unlabeled somatostatin-28 is run in parallel using the same increasing concentrations, as a control. IC50 values are calculated after quantification of the data using a computer-assisted image processing system as known in this art.

The next assay addresses T2, human SSTR2 (Homo sapiens, UniProt P30874).
T2 construct: expressed in transfected cells; host or cells: CHO-K1 cells and CCL39 cells
Kind of assay: Displacement of 125I-[Leu8,D-Trp22,Tyr25]-somatostatin-28 from cloned SSTR2 (receptor autoradiography on membrane pellets). On the procedure: as §1, §2, §3, §4, §5
A general note: Displacement assays read how much labelled ligand stays bound in the presence of the test substance.

Another assay deals with T3, human SSTR3 (Homo sapiens, UniProt P32745).
T3 construct: expressed in transfected cells; host or cells: CHO-K1 cells and CCL39 cells
In words: Displacement of 125I-[Leu8,D-Trp22,Tyr25]-somatostatin-28 from cloned SSTR3 (receptor autoradiography on membrane pellets). The settings on record: for relative potency at SSTR3 by comparison to SRIF-28: binding affinity relative to SRIF-28 (=1); for binding strength and selectivity for SSTR3, in words: qualitative statement. The protocol: as §1
as §2, with “sites. The peptide des-AA^1,2,4,5,12,13-[D-Agl^8(Me,2-naphthoyl)]SRIF inhibits the binding to SSTR3 of an iodinated SRIF-28 ligand that has strong affinity for all five receptors.” for “sites.”
as §3, §4
(§6) Receptor autoradiography is performed on 20 μm thick cryostat sections of the membrane pellets, mounted on microscope slides, and then stored at −20° C. For each of the tested compounds, complete displacement experiments are performed with the universal somatostatin ligand radioligand ^125I-[Leu^8,D-Trp^22,Tyr^25]-somatostatin-28 that binds with strong affinity to all five receptors. Increasing concentrations of the unlabeled peptide are used ranging from 0.1-1000 nM. Unlabeled somatostatin-28 is run in parallel using the same increasing concentrations, as a control. IC50 values are calculated after quantification of the data using a computer-assisted image processing system as known in this art.
(§7) The potencies of certain SRIF analogs to inhibit radioligand binding of ^125I-[Leu^8,D-Trp^22,[…]]SRIF-28 to the various cloned SRIF receptors are shown in the following table wherein the IC50 values are given in nanomolar concentration.

The next assay addresses T4, human SSTR4 (Homo sapiens, UniProt P31391).
T4 construct: expressed in transfected cells; host or cells: CHO-K1 cells and CCL39 cells
In words: Displacement of 125I-[Leu8,D-Trp22,Tyr25]-somatostatin-28 from cloned SSTR4 (receptor autoradiography on membrane pellets). The protocol: as §1, §2, §3, §4, §5

Another assay has as its target T5, human SSTR5 (Homo sapiens, UniProt P35346).
T5 construct: expressed in transfected cells; host or cells: CHO-K1 cells and CCL39 cells
In words: Displacement of 125I-[Leu8,D-Trp22,Tyr25]-somatostatin-28 from cloned SSTR5 (receptor autoradiography on membrane pellets). The protocol: as §1
as §2, with “sites. The peptide des-AA^1,2,4,5,12,13-[D-Agl^8(Me,2-naphthoyl)]SRIF inhibits the binding to SSTR3 of an iodinated SRIF-28 ligand that has strong affinity for all five receptors.” for “sites.”
as §3, §4
as §6, with “Increasing concentrations of the unlabeled peptide are used ranging from 0.1-1000 nM.” left out
as §7

Setting [1] is: inhibition of 125I-[Leu8,D-Trp22,Tyr24]SRIF-28 binding, cloned receptor, read-out: IC50 (nM) mSSTR1.
[2] abbreviates: inhibition of 125I-[Leu8,D-Trp22,Tyr24]SRIF-28 binding, cloned receptor, read-out: IC50 (nM) mSSTR2.
[3] abbreviates: inhibition of 125I-[Leu8,D-Trp22,Tyr24]SRIF-28 binding, cloned receptor, read-out: IC50 (nM) mSSTR3.
Setting [4] is: iodinated SRIF-28 ligand, cloned human receptor, read-out: IC50 at cloned human SSTR3.
The mark [5] stands for this setting: inhibition of 125I-[Leu8,D-Trp22,Tyr24]SRIF-28 binding, cloned receptor, read-out: IC50 (nM) mSSTR4.
The mark [6] stands for this setting: inhibition of 125I-[Leu8,D-Trp22,Tyr24]SRIF-28 binding, cloned receptor, read-out: IC50 (nM) mSSTR5.

Entries after “also recorded” stand apart in the source; their conditions may differ. Where two headings read alike, the source gives them in different places. A value given as a limit tells only on which side of the number the result lay.

T1 sequence (P30872 whole entry): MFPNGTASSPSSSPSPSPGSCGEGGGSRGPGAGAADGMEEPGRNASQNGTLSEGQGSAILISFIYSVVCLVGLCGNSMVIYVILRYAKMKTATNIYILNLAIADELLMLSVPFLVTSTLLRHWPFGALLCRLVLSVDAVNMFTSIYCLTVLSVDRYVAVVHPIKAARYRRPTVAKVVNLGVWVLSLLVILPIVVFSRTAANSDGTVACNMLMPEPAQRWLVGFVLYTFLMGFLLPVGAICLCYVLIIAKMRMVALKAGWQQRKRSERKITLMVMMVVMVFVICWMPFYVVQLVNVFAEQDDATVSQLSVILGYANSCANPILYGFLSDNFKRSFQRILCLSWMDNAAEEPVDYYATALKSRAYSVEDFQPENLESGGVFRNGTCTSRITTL
T5 sequence (P35346 whole entry): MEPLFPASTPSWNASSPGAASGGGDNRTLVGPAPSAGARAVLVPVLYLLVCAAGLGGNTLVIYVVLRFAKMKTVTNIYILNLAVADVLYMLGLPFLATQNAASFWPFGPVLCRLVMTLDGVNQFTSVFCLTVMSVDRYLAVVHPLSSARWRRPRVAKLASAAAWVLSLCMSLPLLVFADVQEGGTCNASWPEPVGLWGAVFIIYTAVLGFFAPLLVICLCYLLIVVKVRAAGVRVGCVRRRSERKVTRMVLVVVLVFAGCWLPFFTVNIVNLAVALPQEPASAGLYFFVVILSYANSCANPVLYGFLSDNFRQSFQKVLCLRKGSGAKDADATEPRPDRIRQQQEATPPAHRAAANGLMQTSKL
T4 sequence (P31391 whole entry): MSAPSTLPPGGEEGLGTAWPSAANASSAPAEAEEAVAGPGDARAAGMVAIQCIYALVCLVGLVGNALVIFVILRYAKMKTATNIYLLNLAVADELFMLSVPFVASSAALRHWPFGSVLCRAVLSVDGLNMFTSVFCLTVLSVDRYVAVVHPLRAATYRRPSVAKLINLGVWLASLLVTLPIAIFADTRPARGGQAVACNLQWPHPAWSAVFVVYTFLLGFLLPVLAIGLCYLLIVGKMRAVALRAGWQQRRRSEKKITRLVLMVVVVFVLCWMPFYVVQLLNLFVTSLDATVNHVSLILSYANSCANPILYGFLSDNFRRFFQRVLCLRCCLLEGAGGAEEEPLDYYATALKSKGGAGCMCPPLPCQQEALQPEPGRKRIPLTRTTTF
T3 sequence (P32745 whole entry): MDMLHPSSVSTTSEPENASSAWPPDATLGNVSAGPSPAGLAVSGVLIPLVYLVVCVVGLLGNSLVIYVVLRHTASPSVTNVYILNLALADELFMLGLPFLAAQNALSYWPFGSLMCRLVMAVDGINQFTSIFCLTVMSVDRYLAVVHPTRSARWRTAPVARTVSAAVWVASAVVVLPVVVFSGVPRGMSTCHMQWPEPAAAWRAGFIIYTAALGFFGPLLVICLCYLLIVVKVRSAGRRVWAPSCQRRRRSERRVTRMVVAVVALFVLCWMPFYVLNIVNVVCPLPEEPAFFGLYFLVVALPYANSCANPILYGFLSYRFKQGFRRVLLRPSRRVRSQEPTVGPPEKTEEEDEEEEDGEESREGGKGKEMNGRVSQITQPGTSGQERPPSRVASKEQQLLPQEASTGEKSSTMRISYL
T2 sequence (P30874 whole entry): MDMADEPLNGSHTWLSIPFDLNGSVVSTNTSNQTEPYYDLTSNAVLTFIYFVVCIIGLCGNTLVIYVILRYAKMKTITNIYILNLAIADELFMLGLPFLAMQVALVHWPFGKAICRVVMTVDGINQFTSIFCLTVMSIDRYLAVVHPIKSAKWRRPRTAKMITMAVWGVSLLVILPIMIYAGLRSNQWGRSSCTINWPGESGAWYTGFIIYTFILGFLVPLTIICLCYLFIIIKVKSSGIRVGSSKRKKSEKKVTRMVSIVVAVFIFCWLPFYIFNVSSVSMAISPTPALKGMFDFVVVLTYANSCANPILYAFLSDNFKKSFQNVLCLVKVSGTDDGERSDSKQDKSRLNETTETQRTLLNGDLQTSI

Consider `C[C@@H](O)[C@@H]1NC(=O)[C@H](CCCCN)NC(=O)[C@@H](N(C)C(=O)c2ccc3ccccc3c2)NC(=O)[C@H](Cc2ccc(O)cc2)NC(=O)[C@H](Cc2ccccc2)NC(=O)[C@@H](N)CSSC[C@@H](C(=O)O)NC(=O)[C@H](Cc2ccccc2)NC1=O` [Peptide No. 2, (cyclo)H-Cys-Phe-Tyr-D-Agl(Me,2Np)-Lys-Thr-Phe-Cys-OH], for which the IC50 at human SSTR1 (setting [1]) is above 10000 nM; on human SSTR2 (setting [2]) it was above 10000 nM; at human SSTR3 (setting [3]), 70 ± 18 nM; on human SSTR3 (setting [4]), around 70 nM; at human SSTR4 (setting [5]), above 1000 nM; at human SSTR5 (setting [6]) it was above 10000 nM. On human SSTR1 (peptide at 100 nM), the “effect on binding of the SRIF-28 radioligand to human SSTR1” value is “minimal effects”. Further, the “effect on binding of the SRIF-28 radioligand to human SSTR2” value at human SSTR2 (peptide at 100 nM) is reported as “minimal effects”. For the same molecule, on human SSTR3, the “relative potency at SSTR3 by comparison to SRIF-28” value (shortened to “relative potency at SSTR3”) is recorded as “about 0.13”. Besides, the “binding strength and selectivity for SSTR3, in words” value (shortened to “binding strength and selectivity”) is “selectively bound to SSTR3” at human SSTR3; “bind strongly and selectively to SSTR3” on human SSTR3 (listed as Peptide 2). On human SSTR4 (peptide at 100 nM), the “effect on binding of the SRIF-28 radioligand to human SSTR4” value is “minimal effects”. For the same molecule, the “effect on binding of the SRIF-28 radioligand to human SSTR5” value at human SSTR5 (peptide at 100 nM) is on record as “minimal effects”.
For the molecule `C[C@@H](O)[C@@H]1NC(=O)[C@H](CCCCN)NC(=O)[C@@H](N(C)C(=O)c2ccc3ccccc3c2)NC(=O)[C@H](Cc2ccc(O)cc2)NC(=O)[C@H](Cc2ccccc2)NC(=O)[C@H](N)CSSC[C@@H](C(=O)O)NC(=O)[C@H](Cc2ccccc2)NC1=O` [Peptide No. 2A, (cyclo 3-14)H-D-Cys-Phe-Tyr-D-Agl(Me,2Np)-Lys-Thr-Phe-Cys-OH], the IC50 at human SSTR1 (setting [1]) was above 10000 nM; on human SSTR2 (setting [2]) it was above 10000 nM; on human SSTR3 (setting [3]), 39 ± 11 nM; on human SSTR3 (setting [4]) it was around 39 nM; at human SSTR4 (setting [5]) it was above 10000 nM; on human SSTR5 (setting [6]) it was above 10000 nM. Further, at human SSTR3, the “relative potency at SSTR3” value is reported as “about 0.24”. Further, the “binding strength and selectivity” value on human SSTR3 was “selectively binds to SSTR3”; at human SSTR3 (listed as Peptide 2A), “bind strongly and selectively to SSTR3”.
As to `C[C@@H](O)[C@@H]1NC(=O)[C@H](CCCCN)NC(=O)[C@@H](N(C)C(=O)c2ccc3ccccc3c2)NC(=O)[C@H](Cc2ccccc2)NC(=O)[C@H](Cc2ccccc2)NC(=O)[C@@H](N)CSSC[C@@H](C(=O)O)NC(=O)[C@H](Cc2ccccc2)NC1=O` [Peptide No. 2B, (cyclo 3-14)H-Cys-Phe-Phe-D-Agl(Me,2Np)-Lys-Thr-Phe-Cys-OH], the IC50 on human SSTR1 (setting [1]) was above 10000 nM; on human SSTR1 (iodinated SRIF-28 ligand, cloned human receptor, read-out: concentration below which no binding to human SSTR1) it was above 10000 nM; on human SSTR2 (setting [2]) it was above 10000 nM; on human SSTR2 (iodinated SRIF-28 ligand, cloned human receptor, read-out: concentration below which no binding to human SSTR2), above 10000 nM; on human SSTR3 (setting [3]), 70 ± 17 nM; on human SSTR3 (setting [4]) it was around 70 nM. Also, the IC50 on human SSTR4 (setting [5]) was above 10000 nM; on human SSTR4 (iodinated SRIF-28 ligand, cloned human receptor, read-out: concentration below which no binding to human SSTR4) it was above 1000 nM; at human SSTR5 (setting [6]), above 10000 nM; on human SSTR5 (iodinated SRIF-28 ligand, cloned human receptor, read-out: concentration below which no binding to human SSTR5), above 10000 nM. Also, the “relative potency at SSTR3” value on human SSTR3 was “about 0.13”. Also, at human SSTR3 (iodinated SRIF-28 ligand, cloned human receptor), the “IC50 at cloned human SSTR3” value is “about the same as No. 2”. The “binding strength and selectivity” value at human SSTR3 is “selectively binds to SSTR3”; at human SSTR3 (listed as Peptide 2B) it was “bind strongly and selectively to SSTR3”.
`C[C@@H](O)[C@@H]1NC(=O)[C@H](CCCCN)NC(=O)[C@@H](N(C)C(=O)c2ccc3ccccc3c2)NC(=O)[C@H](Cc2ccc(Cl)cc2)NC(=O)[C@H](Cc2ccccc2)NC(=O)[C@@H](N)CSSC[C@@H](C(=O)O)NC(=O)[C@H](Cc2ccccc2)NC1=O` [Peptide No. 2C, (cyclo 3-14)H-Cys-Phe-4ClPhe-D-Agl(Me,2Np)-Lys-Thr-Phe-Cys-OH]: the IC50 is above 1000 nM at human SSTR1 (setting [1]); above 1000 nM on human SSTR2 (setting [2]); 300 nM on human SSTR3 (setting [3]); above 10000 nM on human SSTR4 (setting [5]); above 10000 nM at human SSTR5 (setting [6]). Further, the “binding strength and selectivity” value on human SSTR3 (listed as Peptide 2C) was “bind strongly and selectively to SSTR3; also recorded: slightly less selective”.
As to `C[C@@H](O)[C@@H]1NC(=O)[C@H](CCCCN)NC(=O)[C@@H](N(C)C(=O)c2ccc3ccccc3c2)NC(=O)[C@H](Cc2ccccc2)NC(=O)[C@H](Cc2ccccc2)NC(=O)[C@H](N)CSSC[C@@H](C(=O)O)NC(=O)[C@H](Cc2ccccc2)NC1=O` [Peptide No. 2D, (cyclo 3-14)H-D-Cys-Phe-Phe-D-Agl(Me,2Np)-Lys-Thr-Phe-Cys-OH], the IC50 on human SSTR1 (setting [1]) was above 10000 nM; on human SSTR2 (setting [2]), above 10000 nM; at human SSTR3 (setting [3]), 115 ± 36 nM; on human SSTR4 (setting [5]) it was above 10000 nM; on human SSTR5 (setting [6]), above 1000 nM. For the same molecule, the “relative potency at SSTR3” value at human SSTR3 is reported as “about 0.08”. On human SSTR3 (listed as Peptide 2D), the “binding strength and selectivity” value was “bind strongly and selectively to SSTR3; also recorded: slightly less selective”.
Turning to `C[C@@H](O)[C@@H]1NC(=O)[C@H](CCCCN)NC(=O)[C@@H](N(C)C(=O)c2ccc3ccccc3c2)NC(=O)[C@H](Cc2ccc(Cl)cc2)NC(=O)[C@H](Cc2ccccc2)NC(=O)[C@H](N)CSSC[C@@H](C(=O)O)NC(=O)[C@H](Cc2ccccc2)NC1=O` [Peptide No. 2E, (cyclo 3-14)H-D-Cys-Phe-4ClPhe-D-Agl(Me,2Np)-Lys-Thr-Phe-Cys-OH], the IC50 at human SSTR1 (setting [1]) was above 1000 nM; on human SSTR2 (setting [2]), above 1000 nM; on human SSTR3 (setting [3]), 180 nM; on human SSTR4 (setting [5]), above 10000 nM; on human SSTR5 (setting [6]), above 1000 nM. Also, the “binding strength and selectivity” value on human SSTR3 (listed as Peptide 2E) is “bind strongly and selectively to SSTR3; also recorded: slightly less selective”.
